Measurements as given in US4122034A, “Antimicrobial compositions” (Schering Corporation, priority 1975, dated 1978).
In brackets after ≈: the same amount, converted by molar mass.

Legend:
Candida albicans = experiment: In vitro Anti-Candida activity, dilutions in Sabouraud's Dextrose Agar (Table III); type: cell-based; settings: 48 h
Method: (§1) All the tests were carried out and (when necessary) scored under standard conditions. "MIC" means "minimum inhibitory concentration."
In vitro Anti-Candida Activity of 2-aminoalkyl-3-phenyl-
indoles of the formula I. Dilutions in Sabouraud's Dextrose
MIC (mcg/ml) after 48 hours

Epidermophyton floccosum = experiment: In vitro antifungal activity, dilutions in Sabouraud's Dextrose Broth (Table IV); type: cell-based; settings: after 96 hours
Method: as §1
(§2) In vitro Antifungal Activity of 2-amioalkyl-3-phenylindoles
(§3) of the formula I against Dermetophytes and Aspergillus.
(§4) Dilutions in Sabouraud's Dextrose Broth.

Trichophyton rubrum = experiment: as above; type: cell-based; settings: 96 h
Method: as §1, §2, §3, §4

Microsporum distortum = experiment: as above; type: cell-based; settings: after 96 hours
Method: as §1, §2, §3, §4

Tricoderm sp. = experiment: as above; type: cell-based; settings: after 96 hours
Method: as §1, §2, §3, §4

Trichophyton soudenense = experiment: as above; type: cell-based; settings: after 96 hours
Method: as §1, §2, §3, §4

Trichophyton ferrugineum = experiment: as above; type: cell-based; settings: Microsporum ferrugineum; after 96 hours
Method: as §1, §2, §3, §4

Microsporum nanum = experiment: as above; type: cell-based; settings: Nannizzia nana; after 96 hours
Method: as §1, §2, §3, §4

[1] = tested on: Trichophyton mentagrophytes; experiment: as above; type: cell-based; settings: 96 h
Method: as §1, §2, §3, §4

Trichophyton tonsurans = experiment: as above; type: cell-based; settings: after 96 hours
Method: as §1, §2, §3, §4

Trichophyton gallinae = experiment: as above; type: cell-based; settings: after 96 hours
Method: as §1, §2, §3, §4

Trichophyton discoides = experiment: as above; type: cell-based; settings: after 96 hours
Method: as §1, §2, §3, §4

Trichophyton ascoides = experiment: as above; type: cell-based; settings: after 96 hours
Method: as §1, §2, §3, §4

T. mentagrophytes = experiment: Effect against topical T. mentagrophytes infections in guinea pigs (Table VI); type: in vivo; set-up: Average Sum of lesion scores, Days 1-5 / Average Sum of lesion scores, Days 1-10: scale not given here; settings: for Average Sum of lesion scores, Days 1-5: untreated controls 14.8; for Average Sum of lesion scores, Days 1-10: untreated controls 38.2
Method: as §1
Effect of some 2-aminoalkyl-3-phenylindoles of the formula II
against topical T. mentagrophytes infections in guinea pigs.

Klebsiella = experiment: In vitro antibacterial activity, dilution in Mueller Hinton Agar (Table I); type: cell-based
Method: as §1
(§5) In vitro Antibacterial Activity of 2-aminoalkyl-3-phenyl-
(§6) indoles of the formula I. Dilution in Mueller Hinton Agar pH 7.4

Salmonella = experiment: as above; type: cell-based
Method: as §1, §5, §6

Proteus rettgeri = experiment: as above; type: cell-based; settings: Providencia rettgeri; 'Proteus rettgeri mirabilis' [sic]; Mueller Hinton Agar pH 7.4
Method: as §1, §5, §6

Pseudomonas acruginosa = experiment: as above; type: cell-based
Method: as §1, §5, §6

Enterococcus = experiment: as above; type: cell-based
Method: as §1, §5, §6

Escherichia coli = experiment: as above; type: cell-based
Method: as §1, §5, §6

Proteus morganii = experiment: as above; type: cell-based; settings: Morganella morganii; strain Valz; Mueller Hinton Agar pH 7.4
Method: as §1, §5, §6

Staphylococcus aureus = experiment: as above; type: cell-based; settings: Mueller Hinton Agar pH 7.4
Method: as §1, §5, §6

Proteus vulgaris = experiment: as above; type: cell-based; settings: strain Napol, Mueller Hinton Agar pH 7.4
Method: as §1, §5, §6

Proteus mirabilis = experiment: as above; type: cell-based; settings: Mueller Hinton Agar pH 7.4
Method: as §1, §5, §6

Streptococcus pyogenes = experiment: as above; type: cell-based
Method: as §1, §5, §6

NCc1[nH]c2ccc(Cl)cc2c1-c1ccccc1F [A, 2-Aminomethyl-5-chloro-3-(2-fluorophenyl)indole]
MIC (Candida albicans; strain 1, after 48 hours): 75 µg/mL (≈ 273 µM) | MIC (Candida albicans; strain 2, after 48 hours): 75 µg/mL (≈ 273 µM) | MIC (Candida albicans; strain 3, after 48 hours): 75 µg/mL (≈ 273 µM) | MIC (Candida albicans; strain 4, after 48 hours): 75 µg/mL (≈ 273 µM) | MIC (Candida albicans; strain 5, after 48 hours): 75 µg/mL (≈ 273 µM) | MIC (Candida albicans; strain 6, after 48 hours): 75 µg/mL (≈ 273 µM) | MIC (Candida albicans; strain 8, after 48 hours): 75 µg/mL (≈ 273 µM) | MIC (Candida albicans; strain 9, after 48 hours): 75 µg/mL (≈ 273 µM) | MIC (Candida albicans; strain 29, after 48 hours): 75 µg/mL (≈ 273 µM) | MIC (Candida albicans; strain Atkisson, after 48 hours): 75 µg/mL (≈ 273 µM) | MIC (Candida albicans; strain Bertrand, after 48 hours): 75 µg/mL (≈ 273 µM) | MIC (Candida albicans; strain Bevan, after 48 hours): 75 µg/mL (≈ 273 µM) | MIC (Candida albicans; strain Blunden, after 48 hours): 75 µg/mL (≈ 273 µM) | MIC (Candida albicans; strain Bognay, after 48 hours): 75 µg/mL (≈ 273 µM) | MIC (Candida albicans; strain Boyer, after 48 hours): 75 µg/mL (≈ 273 µM) | MIC (Candida albicans; strain Burke, after 48 hours): 75 µg/mL (≈ 273 µM) | MIC (Candida albicans; strain Burnside, after 48 hours): 75 µg/mL (≈ 273 µM) | MIC (Candida albicans; strain Collins, after 48 hours): 75 µg/mL (≈ 273 µM) | MIC (Candida albicans; strain Fix, after 48 hours): 75 µg/mL (≈ 273 µM) | MIC (Candida albicans; strain Frazier, after 48 hours): 75 µg/mL (≈ 273 µM) | MIC (Candida albicans; strain Fulcher, after 48 hours): 75 µg/mL (≈ 273 µM) | MIC (Candida albicans; strain Gay, after 48 hours): 75 µg/mL (≈ 273 µM) | MIC (Candida albicans; strain Hons, after 48 hours): 75 µg/mL (≈ 273 µM) | MIC (Candida albicans; strain Johnson, after 48 hours): 75 µg/mL (≈ 273 µM) | MIC (Candida albicans; strain Kenndy 2, after 48 hours): 75 µg/mL (≈ 273 µM) | MIC (Candida albicans; strain Kennedy 1, after 48 hours): 37.5 µg/mL (≈ 136 µM) | MIC (Candida albicans; strain Lehtman, after 48 hours): 75 µg/mL (≈ 273 µM) | MIC (Candida albicans; strain Lusk, after 48 hours): 75 µg/mL (≈ 273 µM) | MIC (Candida albicans; strain Merkel, after 48 hours): 75 µg/mL (≈ 273 µM) | MIC (Candida albicans; strain Newcomb, after 48 hours): 37.5 µg/mL (≈ 136 µM) | MIC (Candida albicans; strain Sherod, after 48 hours): 75 µg/mL (≈ 273 µM) | MIC (Candida albicans; strain Shurelli, after 48 hours): 75 µg/mL (≈ 273 µM) | MIC (Candida albicans; strain Sparks, after 48 hours): 75 µg/mL (≈ 273 µM) | MIC (Candida albicans; strain Tyner, after 48 hours): 75 µg/mL (≈ 273 µM) | MIC (Epidermophyton floccosum): 3 µg/mL (≈ 10.9 µM) | MIC (Trichophyton rubrum; strain 3, after 96 hours): 7.5 µg/mL (≈ 27.3 µM) | MIC (Trichophyton rubrum; strain 360, after 96 hours): 7.5 µg/mL (≈ 27.3 µM) | MIC (Trichophyton rubrum; strain Blehl, after 96 hours): 7.5 µg/mL (≈ 27.3 µM) | MIC (Trichophyton rubrum; strain Haggerty, after 96 hours): 7.5 µg/mL (≈ 27.3 µM) | MIC (Microsporum distortum): 3 µg/mL (≈ 10.9 µM) | MIC (Tricoderm sp.): 7.5 µg/mL (≈ 27.3 µM) | MIC (Trichophyton soudenense): 17.5 µg/mL (≈ 63.7 µM) | MIC (Trichophyton ferrugineum): 7.5 µg/mL (≈ 27.3 µM) | MIC (Microsporum nanum): 3 µg/mL (≈ 10.9 µM) | MIC ([1]; strain A, after 96 hours): 7.5 µg/mL (≈ 27.3 µM) | MIC ([1]; strain B, after 96 hours): 7.5 µg/mL (≈ 27.3 µM) | MIC ([1]; strain C, after 96 hours): 7.5 µg/mL (≈ 27.3 µM) | MIC ([1]; strain H377, after 96 hours): 7.5 µg/mL (≈ 27.3 µM) | MIC ([1]; strain Young, after 96 hours): 7.5 µg/mL (≈ 27.3 µM) | MIC (Trichophyton tonsurans): 17.5 µg/mL (≈ 63.7 µM) | MIC (Trichophyton gallinae): 7.5 µg/mL (≈ 27.3 µM) | MIC (Trichophyton discoides): 7.5 µg/mL (≈ 27.3 µM) | MIC (Trichophyton ascoides): 17.5 µg/mL (≈ 63.7 µM) | Average No. of Days to become negative, Cultures (T. mentagrophytes; concentration 1%): 6.8 days | Average No. of Days to become negative, Lesion (T. mentagrophytes; concentration 1%): 9.0 days | Average Sum of lesion scores, Days 1-5 (T. mentagrophytes; concentration 1%): 11.8 | Average Sum of lesion scores, Days 1-10 (T. mentagrophytes; concentration 1%): 16.0 | Average No. of Days to become negative, Cultures (T. mentagrophytes; concentration 4%): 6.0 days | Average No. of Days to become negative, Lesion (T. mentagrophytes; concentration 4%): 8.8 days | Average Sum of lesion scores, Days 1-5 (T. mentagrophytes; concentration 4%): 11.2 | Average Sum of lesion scores, Days 1-10 (T. mentagrophytes; concentration 4%): 14.8 | MIC (Klebsiella; pH 7.4, strain 121, Mueller Hinton Agar pH 7.4): 7.5 µg/mL (≈ 27.3 µM) | MIC (Klebsiella; pH 7.4, strain 3020, Mueller Hinton Agar pH 7.4): 7.5 µg/mL (≈ 27.3 µM) | MIC (Klebsiella; pH 7.4, strain AD17, Mueller Hinton Agar pH 7.4): 7.5 µg/mL (≈ 27.3 µM) | MIC (Klebsiella; pH 7.4, strain AD22, Mueller Hinton Agar pH 7.4): 7.5 µg/mL (≈ 27.3 µM) | MIC (Klebsiella; pH 7.4, strain G3694, Mueller Hinton Agar pH 7.4): 7.5 µg/mL (≈ 27.3 µM) | MIC (Salmonella; TYPHI, pH 7.4, B typhi, Mueller Hinton Agar pH 7.4): 7.5 µg/mL (≈ 27.3 µM) | MIC (Salmonella; pH 7.4, C1 Oao, Mueller Hinton Agar pH 7.4): 7.5 µg/mL (≈ 27.3 µM) | MIC (Salmonella; pH 7.4, C2 Cuban, Mueller Hinton Agar pH 7.4): 7.5 µg/mL (≈ 27.3 µM) | MIC (Salmonella; pH 7.4, C2 Napc, Mueller Hinton Agar pH 7.4): 3 µg/mL (≈ 10.9 µM) | MIC (Salmonella; pH 7.4, Salmonella ent. 1, Mueller Hinton Agar pH 7.4): 7.5 µg/mL (≈ 27.3 µM) | MIC (Proteus rettgeri): 17.5 µg/mL (≈ 63.7 µM) | MIC (Pseudomonas acruginosa; pH 7.4, strain 130, Mueller Hinton Agar pH 7.4): 17.5 µg/mL (≈ 63.7 µM) | MIC (Pseudomonas acruginosa; pH 7.4, strain 138, Mueller Hinton Agar pH 7.4): 17.5 µg/mL (≈ 63.7 µM) | MIC (Pseudomonas acruginosa; pH 7.4, strain 762, Mueller Hinton Agar pH 7.4): 17.5 µg/mL (≈ 63.7 µM) | MIC (Pseudomonas acruginosa; pH 7.4, strain 8709, Mueller Hinton Agar pH 7.4): 17.5 µg/mL (≈ 63.7 µM) | MIC (Pseudomonas acruginosa; pH 7.4, strain Trav. 1, Mueller Hinton Agar pH 7.4): 17.5 µg/mL (≈ 63.7 µM) | MIC (Enterococcus; pH 7.4, strain 373, Mueller Hinton Agar pH 7.4): 7.5 µg/mL (≈ 27.3 µM) | MIC (Enterococcus; pH 7.4, strain 0928/72, Mueller Hinton Agar pH 7.4): 7.5 µg/mL (≈ 27.3 µM) | MIC (Escherichia coli; pH 7.4, strain 777, Mueller Hinton Agar pH 7.4): 3 µg/mL (≈ 10.9 µM) | MIC (Escherichia coli; pH 7.4, strain 1574-1, Mueller Hinton Agar pH 7.4): 7.5 µg/mL (≈ 27.3 µM) | MIC (Escherichia coli; pH 7.4, strain 4195, Mueller Hinton Agar pH 7.4): 3 µg/mL (≈ 10.9 µM) | MIC (Escherichia coli; pH 7.4, strain 10536, Mueller Hinton Agar pH 7.4): 7.5 µg/mL (≈ 27.3 µM) | MIC (Escherichia coli; pH 7.4, strain JR66, Mueller Hinton Agar pH 7.4): 3 µg/mL (≈ 10.9 µM) | MIC (Proteus morganii): 17.5 µg/mL (≈ 63.7 µM) | MIC (Staphylococcus aureus; 209P, pH 7.4, strain 209P): 7.5 µg/mL (≈ 27.3 µM) | MIC (Staphylococcus aureus; pH 7.4, strain 59N): 3 µg/mL (≈ 10.9 µM) | MIC (Staphylococcus aureus; pH 7.4, strain Gray): 7.5 µg/mL (≈ 27.3 µM) | MIC (Staphylococcus aureus; pH 7.4, strain Wood): 3 µg/mL (≈ 10.9 µM) | MIC (Staphylococcus aureus; pH 7.4, strain Zeigler): 3 µg/mL (≈ 10.9 µM) | MIC (Proteus vulgaris): 17.5 µg/mL (≈ 63.7 µM) | MIC (Proteus mirabilis; pH 7.4, strain Hard): 17.5 µg/mL (≈ 63.7 µM) | MIC (Proteus mirabilis; pH 7.4, strain Peras): 7.5 µg/mL (≈ 27.3 µM) | MIC (Streptococcus pyogenes; pH 7.4, strain 27, Mueller Hinton Agar pH 7.4): 7.5 µg/mL (≈ 27.3 µM) | MIC (Streptococcus pyogenes; pH 7.4, strain C, Mueller Hinton Agar pH 7.4): 7.5 µg/mL (≈ 27.3 µM) | MIC (Streptococcus pyogenes; pH 7.4, strain Cruz, Mueller Hinton Agar pH 7.4): 3 µg/mL (≈ 10.9 µM)
